# According to article PMC6189519, “Evaluation of the DREAM Technique for a High-Throughput Deorphanization of Chemosensory Receptors in Drosophila” (Frontiers in Molecular Neuroscience, 2018):
# Tests used:
# Assay in all cases: single sensillum recording of the wild-type OSN expressing the receptor
# Or19a = molecular target: T1, Or19a (Drosophila melanogaster, UniProt Q9I816); details: odorant dilution 10^-1 in hexane, 0.5 s stimulus
# T1 construct: native full-length receptor in olfactory sensory neurons (ai2 sensillum) of wild-type flies; paralogue Or19b may be co-expressed; with Odorant receptor coreceptor
# T1 sequence (Q9I816 1-387): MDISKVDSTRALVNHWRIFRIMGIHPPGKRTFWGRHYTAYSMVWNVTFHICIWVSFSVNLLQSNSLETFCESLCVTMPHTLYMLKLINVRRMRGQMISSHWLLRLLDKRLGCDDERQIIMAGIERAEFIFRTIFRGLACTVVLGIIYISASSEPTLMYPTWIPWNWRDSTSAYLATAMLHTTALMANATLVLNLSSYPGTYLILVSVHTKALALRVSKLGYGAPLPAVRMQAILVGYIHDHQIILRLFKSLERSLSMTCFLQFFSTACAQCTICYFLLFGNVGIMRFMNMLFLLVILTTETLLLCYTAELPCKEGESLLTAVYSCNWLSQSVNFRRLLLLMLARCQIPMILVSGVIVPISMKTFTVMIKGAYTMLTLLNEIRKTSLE
# T1 sequence (Q9VNB5 1-486 partner): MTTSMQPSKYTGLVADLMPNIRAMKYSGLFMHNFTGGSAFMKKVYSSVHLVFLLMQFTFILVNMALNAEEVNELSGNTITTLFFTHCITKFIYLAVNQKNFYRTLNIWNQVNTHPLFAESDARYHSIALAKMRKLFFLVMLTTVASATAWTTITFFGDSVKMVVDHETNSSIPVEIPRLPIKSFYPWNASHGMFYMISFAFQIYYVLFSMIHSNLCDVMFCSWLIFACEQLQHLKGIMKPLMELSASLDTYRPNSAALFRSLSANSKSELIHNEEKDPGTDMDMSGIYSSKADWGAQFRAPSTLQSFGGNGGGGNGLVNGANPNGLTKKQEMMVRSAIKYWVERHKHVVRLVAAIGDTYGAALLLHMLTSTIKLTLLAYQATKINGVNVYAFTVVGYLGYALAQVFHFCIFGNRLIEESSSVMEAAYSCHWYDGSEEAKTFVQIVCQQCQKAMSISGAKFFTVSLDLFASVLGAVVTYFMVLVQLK
# Or49b = molecular target: T2, Or49b (Drosophila melanogaster, UniProt Q9V6H2); details: agonist (best ligand); odorant dilution 10^-1 in hexane, 0.5 s stimulus
# T2 construct: native full-length receptor in olfactory sensory neurons (ab6B) of wild-type flies (single sensillum recording); with Odorant receptor coreceptor
# T2 sequence (Q9V6H2 1-375): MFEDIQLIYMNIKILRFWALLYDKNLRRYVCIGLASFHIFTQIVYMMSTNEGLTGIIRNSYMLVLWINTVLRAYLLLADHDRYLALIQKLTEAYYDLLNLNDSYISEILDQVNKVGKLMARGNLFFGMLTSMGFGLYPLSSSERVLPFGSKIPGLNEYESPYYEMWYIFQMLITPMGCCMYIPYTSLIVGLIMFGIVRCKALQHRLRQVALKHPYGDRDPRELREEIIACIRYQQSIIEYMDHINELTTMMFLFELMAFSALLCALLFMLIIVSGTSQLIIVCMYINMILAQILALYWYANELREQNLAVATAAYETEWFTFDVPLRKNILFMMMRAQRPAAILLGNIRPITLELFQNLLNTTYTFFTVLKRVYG
# T2 sequence (Q9VNB5 1-486 partner): T1 sequence (Q9VNB5 1-486 partner)
# Or22a = molecular target: T3, Or22a (Drosophila melanogaster, UniProt P81909); details: agonist; odorant dilution 10^-1 in hexane, 0.5 s stimulus
# T3 construct: native full-length receptor in olfactory sensory neurons (ab3A) of wild-type flies; Or22b may be co-expressed; with Odorant receptor coreceptor
# T3 sequence (P81909 1-397): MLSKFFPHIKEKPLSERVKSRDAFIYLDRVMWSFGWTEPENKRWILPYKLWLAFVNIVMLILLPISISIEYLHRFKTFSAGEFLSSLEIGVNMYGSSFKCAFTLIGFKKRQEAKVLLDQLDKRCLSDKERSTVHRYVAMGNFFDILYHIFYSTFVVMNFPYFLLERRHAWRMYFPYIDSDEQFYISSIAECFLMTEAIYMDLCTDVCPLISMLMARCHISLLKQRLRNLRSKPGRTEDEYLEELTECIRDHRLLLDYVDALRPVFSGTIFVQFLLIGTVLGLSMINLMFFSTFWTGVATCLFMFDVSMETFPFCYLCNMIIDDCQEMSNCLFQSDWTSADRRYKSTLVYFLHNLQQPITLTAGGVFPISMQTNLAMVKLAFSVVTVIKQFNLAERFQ
# T3 sequence (Q9VNB5 1-486 partner): T1 sequence (Q9VNB5 1-486 partner)
# Ir31a = molecular target: T4, Ir31a (Drosophila melanogaster, UniProt Q8IPB8); details: agonist (best ligand); odorant dilution 10^-1 in hexane, 0.5 s stimulus
# T4 construct: native full-length ionotropic receptor in olfactory sensory neurons of wild-type flies (single sensillum recording); with Ionotropic receptor 8a
# T4 sequence (Q8IPB8 18-629): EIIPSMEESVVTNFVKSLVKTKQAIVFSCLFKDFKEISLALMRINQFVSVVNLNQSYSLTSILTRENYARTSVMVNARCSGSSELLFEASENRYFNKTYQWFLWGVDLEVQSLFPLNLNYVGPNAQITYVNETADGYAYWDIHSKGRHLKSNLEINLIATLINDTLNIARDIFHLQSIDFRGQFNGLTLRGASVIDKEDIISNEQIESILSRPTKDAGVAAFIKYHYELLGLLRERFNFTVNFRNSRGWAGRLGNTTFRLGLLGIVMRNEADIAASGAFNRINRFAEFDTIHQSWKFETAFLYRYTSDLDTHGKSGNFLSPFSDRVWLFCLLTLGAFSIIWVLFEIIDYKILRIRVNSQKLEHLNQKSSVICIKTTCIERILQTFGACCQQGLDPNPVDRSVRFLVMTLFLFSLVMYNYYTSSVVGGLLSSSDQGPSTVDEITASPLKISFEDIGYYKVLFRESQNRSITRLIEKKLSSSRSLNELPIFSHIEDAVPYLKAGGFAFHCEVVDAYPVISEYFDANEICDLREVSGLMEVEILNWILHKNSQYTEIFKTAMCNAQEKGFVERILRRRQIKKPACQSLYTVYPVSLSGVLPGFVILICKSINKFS
# T4 sequence (Q9W365 18-936 partner): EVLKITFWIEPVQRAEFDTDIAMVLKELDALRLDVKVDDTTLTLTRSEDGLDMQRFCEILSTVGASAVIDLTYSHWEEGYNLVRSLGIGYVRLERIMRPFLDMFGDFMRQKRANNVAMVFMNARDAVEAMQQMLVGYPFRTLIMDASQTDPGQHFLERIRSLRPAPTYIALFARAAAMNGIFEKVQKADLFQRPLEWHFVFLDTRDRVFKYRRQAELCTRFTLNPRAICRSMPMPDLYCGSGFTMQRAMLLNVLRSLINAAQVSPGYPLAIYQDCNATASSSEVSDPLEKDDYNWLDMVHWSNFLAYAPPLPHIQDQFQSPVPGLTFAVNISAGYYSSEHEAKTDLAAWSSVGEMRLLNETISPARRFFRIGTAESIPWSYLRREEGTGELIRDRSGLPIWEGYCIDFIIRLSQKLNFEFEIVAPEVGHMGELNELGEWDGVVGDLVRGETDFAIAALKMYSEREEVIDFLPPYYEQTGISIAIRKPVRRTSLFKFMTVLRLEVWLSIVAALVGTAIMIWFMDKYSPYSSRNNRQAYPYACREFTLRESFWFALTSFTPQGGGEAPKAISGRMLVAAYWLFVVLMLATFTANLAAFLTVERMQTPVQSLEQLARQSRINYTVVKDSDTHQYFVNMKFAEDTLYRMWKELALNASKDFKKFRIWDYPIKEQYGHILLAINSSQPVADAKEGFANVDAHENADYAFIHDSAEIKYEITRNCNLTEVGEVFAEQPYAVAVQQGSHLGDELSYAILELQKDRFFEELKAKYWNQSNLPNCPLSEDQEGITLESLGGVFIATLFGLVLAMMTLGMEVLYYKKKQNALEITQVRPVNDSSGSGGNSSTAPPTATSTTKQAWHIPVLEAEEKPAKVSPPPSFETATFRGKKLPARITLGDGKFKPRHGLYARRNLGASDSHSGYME
smiles,measurement,setting,value
CC(=O)OC/C=C(\C)CCC=C(C)C [geranyl acetate],spikes/s,Or19a; agonist,OSNs expressing Or19a indeed become activated by high amounts of geranyl acetate
COc1ccccc1O [guaiacol],spikes/s,Or49b,confirming the published ligand–receptor interaction of guaiacol and Or49b
CCCC(=O)C(=O)O [2-oxo-valeric acid],spikes/s,"Or19a; printed as gated by the odorant, direction not told",Or19a as an OR being gated by 2-oxo-valeric acid
same,spikes/s,Or22a,both being chemosensory receptors shown to be activated by stimulation with this odorant
same,spikes/s,Ir31a,both being chemosensory receptors shown to be activated by stimulation with this odorant
